Source: patent US20220243160A1, “Method and Apparatus for Interrogating Biological Systems” (Arizona Board of Regents on Behalf of the University of …, priority 2019, published 2022)
pIC50: −log10 of the molar value.

Key:
Type in all cases: cell-based
Monolayer SKOV3 cells = assay: γ-H2AX / 53BP1 foci immunofluorescence after irradiation; settings: 0.7 μM 1 h before irradiation at 0 or 2 Gy, 6 h, 24 h after irradiation
Method: Cells were seeded on coverslip at a density of 5×10^4 per mL and exposed to DMSO or WD at a concentration of 0.7 μM 1 h before being irradiated at 0 or 2 Gy. The medium was removed and replaced by a drug-free medium immediately after irradiation. FIG. 6A. Images of immunofluorescence elicited in SKOV3 cells 1 h, 6 h and 24 h after irradiation taken using an Epifluorescence microscope at a magnification of 63×. […] Scale bar=10 μm. […] Values are normalized with non-irradiated cells, exposed to DMSO or WD respectively. […] Values are normalized with non-irradiated cells, exposed to DMSO or WD respectively. All the data are presented as the mean±SEM of at least 60 nuclei. *Significant differences as determined by Student's t-test (p<0.05).

[1] = tested on: SKOV3 ovarian cancer cells; assay: MTT antiproliferative assay on SKOV3 cells in monolayer (2D); settings: for pIC50: SKOV3 cells cultured in monolayer, 48 h exposure
[2] = tested on: ovarian cancer cells cultivated in a 2D cell arrangement; assay: Clonogenic assay for radiosensitizing effect, 2D culture; settings: 0.7 μM 1 h before irradiation at 0, 2, 4 or 6 Gy
Method: The radiosensitizing effect was assessed with a clonogenic assay. […] The medium was removed right after irradiation and replaced by a drug-free medium, changed twice a week for the rest of the experiment. Clonogenic assay was stopped when colonies containing at least 50 cells were observed under the microscope. Error bar represent mean±SEM from 3 independent experiments with at least 2 replicates each.

NHEJ DNA repair pathway = assay: Western blot of DNA repair proteins after irradiation; settings: SKOV3 2D, 0.7 μM 1 h before irradiation at 0 or 2 Gy
Method: Western blot showing expression level of ATM, S1981pATM, DNA-PKcs, S2056pDNA-PKcs, XRCC4, RPA70 and RAD51 in SKOV3 cells cultivated in 2D. Cells were exposed to DMSO or WD at a concentration of 0.7 μM 1 h before undergoing an irradiation at 0 or 2 Gy. Proteins within cells were extracted 1 h, 6 h or 24 h after irradiation. A total of 5 μg of proteins was loaded. Bands intensities were quantified using ImageJ, normalized with GAPDH. Numbers represent expression level compared to non-irradiated cells. NI=Non-irradiated samples.

SKOV3 spheroids = assay: MTT antiproliferative assay on SKOV3 spheroids; settings: for antiproliferative effect: SKOV3 spheroids; for pIC50: SKOV3 spheroids (5 days formation), 48 h exposure
Method: Twenty thousand cells were seeded in an ultra-low affinity round bottom 96 well plates and 5 days were allowed for spheroids formation. […] Error bars represent mean±SEM from 3 independent experiments of at least 6 replicates each.

[3] = tested on: spheroids of SKOV3 ovarian cancer cells; assay: Spheroid volume growth after drug and irradiation; settings: 0.7 μM 1 h before irradiation at 0 Gy or 4 Gy, followed 19 days
Method: FIG. 8 includes a schematic overview of experiment. Cells were plated in an ultra-low affinity 96 well plate with a round bottom and allowed to form spheroids for 5 days. […] The medium containing drug was replaced by a drug-free medium after 4 days, then freshly changed twice a week for the rest of the experiment. Diameter of each spheroid was measured two or three times a week for 19 days with Micrometrics SE Premium software. Spheroid volume growth over time. Volume were normalized to day 0. Error bars represent mean±SEM for at least 5 replicates.

In the case of `CC1=C(C)C(=O)O[C@@H]([C@](C)(O)[C@H]2CC[C@H]3[C@@H]4C[C@H]5O[C@]56[C@@H](O)C=CC(=O)[C@]6(C)[C@H]4CC[C@]23C)C1` [WD, withanolide D], the “DNA DSBs (γ-H2AX and 53BP1 foci) versus DMSO” value (Monolayer SKOV3 cells) was “more DNA DSBs over 24 h than those exposed to DMSO”, the cytotoxic effect ([1]; SKOV3 2D, 0.156 to 80 μM, 48 h) was “dose-dependent cytotoxic effect” and the pIC50 [1] was 5.38. For the same compound, the radiosensitizing effect [2] was “have a radiosensitizing effect”, the “mechanism of radiosensitization (expression of ATM, pATM, DNA-PKcs, pDNA-PKcs, XRCC4, RPA70, RAD51)” value (NHEJ DNA repair pathway) was “inhibiting the NHEJ DNA repair pathway” and the antiproliferative effect (SKOV3 spheroids) was “significant antiproliferative effect”. The pIC50 (SKOV3 spheroids) was 4.80 and the “radiosensitization of spheroids (normalized volume)” value [3] was “do not radiosensitize”.
`CC1=C(CO)C(=O)O[C@@H]([C@@H](C)[C@H]2CC[C@H]3[C@@H]4C[C@H]5O[C@]56[C@@H](O)C=CC(=O)[C@]6(C)[C@H]4CC[C@]23C)C1` [WFA, withaferin A] was tested, and the pIC50 [1] was 5.36, the radiosensitizing effect [2] was “have a radiosensitizing effect” and the antiproliferative effect (SKOV3 spheroids) was “significant antiproliferative effect”. For the same compound, the pIC50 (SKOV3 spheroids) was 4.64 and the “radiosensitization of spheroids (normalized volume)” value [3] was “do not radiosensitize”.
